In patent US6506778B2, “Acylphenylurea derivatives, a process for their preparation and their use as pharmaceuticals” (Aventis Pharma Deutschland GmbH, priority 2000, dated 2003):

Legend:
[1] = biological target: T1, human glycogen phosphorylase a (Homo sapiens, UniProt P06737); assay: Glycogen phosphorylase a activity assay (reverse direction, liberation of inorganic phosphate); format: biochemical; details: 10 μM test substance; in vitro; incubated at room temperature for 40 minutes; absorption at 820 nm
T1 sequence (P06737 1-847): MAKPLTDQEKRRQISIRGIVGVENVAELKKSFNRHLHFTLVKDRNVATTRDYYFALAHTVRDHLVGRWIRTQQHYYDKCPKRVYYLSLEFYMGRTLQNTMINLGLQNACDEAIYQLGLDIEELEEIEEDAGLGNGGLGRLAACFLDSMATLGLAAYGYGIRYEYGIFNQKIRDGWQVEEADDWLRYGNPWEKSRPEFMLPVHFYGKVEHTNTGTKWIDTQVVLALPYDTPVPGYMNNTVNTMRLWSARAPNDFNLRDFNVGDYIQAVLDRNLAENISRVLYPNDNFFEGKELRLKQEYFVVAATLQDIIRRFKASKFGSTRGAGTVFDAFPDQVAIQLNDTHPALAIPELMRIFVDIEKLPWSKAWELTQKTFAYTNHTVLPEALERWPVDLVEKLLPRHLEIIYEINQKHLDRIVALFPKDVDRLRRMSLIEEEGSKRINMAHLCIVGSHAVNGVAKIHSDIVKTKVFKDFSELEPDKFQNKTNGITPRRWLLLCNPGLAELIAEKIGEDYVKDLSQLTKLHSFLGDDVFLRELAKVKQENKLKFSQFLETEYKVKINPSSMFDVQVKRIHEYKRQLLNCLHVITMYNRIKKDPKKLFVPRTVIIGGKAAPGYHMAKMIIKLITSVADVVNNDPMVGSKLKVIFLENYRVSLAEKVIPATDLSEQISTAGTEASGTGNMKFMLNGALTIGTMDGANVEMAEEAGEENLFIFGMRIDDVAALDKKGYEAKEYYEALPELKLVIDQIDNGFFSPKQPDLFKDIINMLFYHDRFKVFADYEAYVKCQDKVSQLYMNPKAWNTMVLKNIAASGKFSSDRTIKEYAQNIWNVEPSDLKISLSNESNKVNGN
Description: Glycogen Phosphorylase a Activity Assay
The effect of compounds on the activity of the active form of glycogen phosphorylase (GPa) was measured in the reverse direction by following the synthesis of glycogen from glucose 1-phosphate by determining the liberation of inorganic phosphate. All the reactions were carried out as duplicate determinations in microtiter plates with 96 wells (Half Area Plates, Costar No 3696), measuring the change in absorption owing to the formation of the reaction product at the wavelength specified hereinafter in a Multiskan Ascent Elisa Reader (Lab Systems, Finland).
In order to measure the GPa enzymic activity in the reverse direction, the general method of Engers et al. (Engers H D, Shechosky S, Madsen N B, Can J Biochem 1970 July; 48(7):746-754) was used to measure the conversion of glucose 1-phosphate into glycogen and inorganic phosphate. […] The baseline glycogen phosphorylase a activity in the absence of test substance was determined by adding 10 μl of buffer solution T (0.1% DMSO). […] After incubation at 45° C. for 60 minutes, the absorption at 820 nm was measured. […]

SMILES: O=C(O)CCCCCOc1c(Cl)cc(NC(=O)NC(=O)c2ccccc2Cl)cc1Cl [Example 1, 6-{2,6-Dichloro-4-[(2-chlorobenzoyl)ureido]phenoxy}hexanoic Acid]
- inhibition at 10 µM [1]: 87%
- melting point: 164 °C
